Consider five compounds from PubChem BioAssay (NCI).

Common to all, as to test: DTP human tumour cell line panel, 48 h
Experiment [1] relates to BT-549 breast.
Experiment [2] concerns CAKI-1 renal.
Experiment [3] has as its system COLO 205 colon.
The subject of experiment [4] is HOP-92 NSCLC.
Experiment [5] relates to MDA-N.
In experiment [6] the test system is NCI-H522 lung.
In experiment [7] the test system is OVCAR-3 ovarian.
For experiment [8], the system named is OVCAR-5 ovarian.
For experiment [9], the system named is SK-MEL-2 melanoma.
Experiment [10] has as its system SK-OV-3 ovarian.

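48-hour exposure; five concentrations; linearly interpolated endpoints. TGI: concentration producing complete growth inhibition.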 Bounds are passed on as bounds.

What is called TGI is the concentration giving total growth inhibition. A low value points to greater sensitivity of the cells. For `CCOC(=O)/C(C(N)=O)=C(\O)C(=O)/C(Br)=C(\O)c1ccccc1`, the total growth inhibition concentration (TGI) turned out to be 33.7 µM in experiment [1]; 24.6 µM in [2]; 33.4 µM in experiment [3]; 53.7 µM in [4]; 32.2 µM in experiment [5]; 3.7 µM in experiment [6]. Moreover, the TGI is 41.4 µM in experiment [7], 37.5 µM in experiment [8], 37.4 µM in experiment [9] and > 57.4 µM in [10].

`C[C@@H]1[C@@H](C)C(c2ccccc2)O[Si]1(C(C)(C)C)C(C)(C)C` (stereo not given in full): the TGI stood at 57.1 µM in experiment [1]; 33 µM in [2]; 30.3 µM in experiment [3]; 38.8 µM in experiment [4]; 48.4 µM in [5]; 28.7 µM in experiment [6]. For the same compound, the TGI in [7] is 30.1 µM; in [8], 31.4 µM; in [9], 29.3 µM; in [10], > 69.3 µM.

In the case of `Cc1cc(-n2nnc(C(=O)O)c2-c2ccccc2)c2ccc(Cl)cc2n1`, the TGI in experiment [1], in experiment [2], in experiment [3], in experiment [4], in [5] and in experiment [6] was > 100 µM in each case. For the same compound, the TGI in experiment [7], in [8], in experiment [9] and in [10] was > 100 µM in each case.

As to `Clc1sc(Cl)c2c1[C@@H](Cl)C[C@@H]2Cl`, the concentration for total growth inhibition (TGI) in experiment [1] is > 100 µM; in experiment [2] it was > 100 µM; in [3] it was > 100 µM; in experiment [4] it was > 100 µM; in experiment [5], > 100 µM; in experiment [6], 58.2 µM. The TGI in [7], in [8], in experiment [9] and in [10] was > 100 µM throughout.

Turning to `CC(C)(C)OC(=O)[C@@H]1CCC(=O)N1C1(c2ccccc2)c2ccccc2-c2ccccc21`, the TGI in experiment [1] is > 100 µM; in [2], > 100 µM; in [3], 77.8 µM; in [4], > 100 µM; in experiment [5], 96.8 µM; in experiment [6], 94 µM. The concentration for total growth inhibition (TGI) in experiment [7], in experiment [8], in [9] and in experiment [10] was > 100 µM throughout.
